Source: US20120135864A1, “POLLINATION IMPROVER” (TAMINCO, NAAMLOZE VENNOOTSCHAP, priority 2009, published 2012)

Key:
Type in all cases: in vivo
Winter Barley cv Carat = assay: Winter barley pot trial under glasshouse conditions: grain yield and thousand grain weight; conditions: for Grain Yield (%) T1 Timing / Grain Yield (%) T2 Timing: untreated = 100; for Grain Yield (g per Pot) T1 Timing: sprayed at T1 (Growth Stage 52: one quarter ear emergence); for Grain Yield (g per Pot) T2 Timing: sprayed at T2 (Growth Stage 65-69: at time of anthesis)
Experimental: (§1) The applied concentration of the composition of the present invention can vary widely depending on the water volume applied to plants as well as other factors such as plant age and size, and plant sensitivity to the final seed yield and crop quality improver. […] The rate of other components such as spreaders and stickers can be 50-200 ml per ha. The rate of cytokinin can typically be 0.001 to 1.0 percent of the formulation. […] ADD=at least one from class (f) each at <3 g/l, plus at least one from class (c). Winter Barley: […] Harvested: 28 July. […] Harvested: 28 July. Navy Bean: […] Harvested: 28 August. […] Harvested: 28 August. Statistical Layout: Randomised Complete Block trial, under glasshouse conditions, United Kingdom.

Winter Wheat cv Limerick = assay: Winter wheat pot trial under glasshouse conditions: grain yield and thousand grain weight; conditions: for Grain Yield (%) T1 Timing / Grain Yield (%) T2 Timing: relative to untreated; for Grain Yield (g per Pot) T1 Timing: sprayed at T1 (Growth Stage 52: one quarter ear emergence); for Grain Yield (g per Pot) T2 Timing: sprayed at T2 (Growth Stage 65-69: at time of anthesis)
Experimental: as §1

[1] = tested on: Phaseolus vulgaris (NAVY BEAN) cv Primel; assay: Navy bean pot trial under glasshouse conditions: seed yield and seed weight; conditions: for Seed Yield (%) T1 Timing / Seed Yield (%) T2 Timing: relative to untreated; for Seed Yield (g per Pot) T1 Timing: sprayed at T1 (Growth Stage R1: first flowering); for Seed Yield (g per Pot) T2 Timing: sprayed at T2 (Growth Stage R3)
Experimental: as §1

Glycine max (SOYBEAN) = assay: Soybean pot trial under glasshouse conditions: seed yield and thousand seed weight; conditions: for Seed Yield (%) T1 Timing / Seed Yield (%) T2 Timing: relative to untreated; for Seed Yield (g per Pot) T1 Timing: sprayed at T1 (Growth Stage R1: first flowering); for Seed Yield (g per Pot) T2 Timing: sprayed at T2 (Growth Stage R3)
Experimental: as §1

[2] = tested on: Winter Wheat (Mean of 3 Varieties); assay: Grain quality improvement pot trial, winter wheat
Text: (§2) Thousand grain weight, specific weight and % screenings are different aspects of crop quality. For example, specific weight (bushel weight) is the weight of a given volume of grain, expressed in kg/hl. For example, growers have to meet standards of 76 for wheat and 64 for barley in order to meet minimum quality requirements. Varieties with the highest values are those most likely to produce acceptable grain lots. Aspects of crop quality for different varieties of crops are found in The Pocket Guide to Varieties of Cereals, Oilseeds and Pulses (NIAB Association). Other quality standards include, but are not limited to, endosperm texture, protein content (%), Hagberg falling number, Zeleny volume (cc), Chopin Alveograph, malt extract, IBD approval—brewing, IBD approval—distilling, IBD approval—grain distilling, sieving %<2.25 mm, sieving %<2.5 mm, nitrogen content, kernel content, sieving %<2.0 mm, oil content (%), oil type, hilum colour, overseas malting, hot water extract, and seed colour. Examples of % screenings are 2.2 mm and 2.5 mm. Such measures can be used in determining the effect provided by the present invention.
(§3) The TAMPF formulation example in these experiments included AN+AC+ADD, applied at the rate of 1 litre per hectare. ADD=at least one from class (f) each at <3 g/l, plus at least one from class (c).
(§4) Trials information: grown in pots in standard multi-purpose compost of pH 6.5, at 6/7 seeds per 9 cm pot (winter wheat), or 5/6 seeds per 9 cm pot (winter barley). Sprayed at the start of the anthesis growth stage (=shortly after ear emergence: GS60)

[3] = tested on: Winter Barley (Mean of 3 Varieties); assay: Grain quality improvement pot trial, winter barley
Text: as §2, §3, §4

[4] = sprayed at start of anthesis (GS60)

| SMILES | Grain Yield (%) T1 Timing (Winter Barley cv Carat; T1 (Growth Stage 52)) [%] | Grain Yield (%) T2 Timing (Winter Barley cv Carat; T2 (Growth Stage 65-69)) [%] | Grain Yield (g per Pot) T1 Timing (Winter Barley cv Carat) [g per Pot] | Grain Yield (g per Pot) T2 Timing (Winter Barley cv Carat) [g per Pot] | Grain Yield (%) T1 Timing (Winter Wheat cv Limerick; T1 (Growth Stage 52)) [%] | Grain Yield (%) T2 Timing (Winter Wheat cv Limerick; T2 (Growth Stage 65-69)) [%] | Grain Yield (g per Pot) T1 Timing (Winter Wheat cv Limerick) [g per Pot] | Grain Yield (g per Pot) T2 Timing (Winter Wheat cv Limerick) [g per Pot] | Seed Yield (%) T1 Timing ([1]; T1 (Growth Stage R1)) [%] | Seed Yield (%) T2 Timing ([1]; T2 (Growth Stage R3)) [%] | Seed Yield (g per Pot) T1 Timing [1] [g per Pot] | Seed Yield (g per Pot) T2 Timing [1] [g per Pot] | Seed Yield (%) T1 Timing (Glycine max (SOYBEAN); T1 (Growth Stage R1)) [%] | Seed Yield (%) T2 Timing (Glycine max (SOYBEAN); T2 (Growth Stage R3)) [%] | Seed Yield (g per Pot) T1 Timing (Glycine max (SOYBEAN)) [g per Pot] | Seed Yield (g per Pot) T2 Timing (Glycine max (SOYBEAN)) [g per Pot] | other results |
| --- | --- | --- | --- | --- | --- | --- | --- | --- | --- | --- | --- | --- | --- | --- | --- | --- | --- |
| Nc1ccccc1C(=O)O [AN, anthranilic acid] | 96.8 | 98.8 | 24.0 | 24.5 | 99.7 | 98.7 | 29.8 | 29.5 | 102.0 | 98.0 | 55.5 | 53.3 | 99.7 | 101.2 | 32.8 | 33.3 |  |
| O=S(O)(O)=S [Thiosulphate] | 102.8 | 102.4 | 25.5 | 25.4 | 108.4 | 111.7 | 32.4 | 33.4 | 108.6 | 109.9 | 59.1 | 59.8 | 108.8 | 110.3 | 35.8 | 36.3 | Thousand Grain Weight (g) T1 Timing (Winter Barley cv Carat; T1 (Growth Stage 52)): 46.5 g; Thousand Grain Weight (g) T2 Timing (Winter Barley cv Carat; T2 (Growth Stage 65-69)): 46.4 g; Thousand Grain Weight (g) T1 Timing (Winter Wheat cv Limerick; T1 (Growth Stage 52)): 50.4 g; Thousand Grain Weight (g) T2 Timing (Winter Wheat cv Limerick; T2 (Growth Stage 65-69)): 50.7 g; Indiv Seed Weight (mg) T1 Timing ([1]; T1 (Growth Stage R1)): 276 mg; Indiv Seed Weight (mg) T2 Timing ([1]; T2 (Growth Stage R3)): 275 mg; Thousand Seed Weight (g) T1 Timing (Glycine max (SOYBEAN); T1 (Growth Stage R1)): 160 g; Thousand Seed Weight (g) T2 Timing (Glycine max (SOYBEAN); T2 (Growth Stage R3)): 159 g; % Screenings (2.2 mm) ([2]; sprayed at GS60, 2.2 mm): 4.5%; % Screenings (2.5 mm) ([2]; sprayed at GS60, 2.5 mm): 8.0%; Specific Weight (kg/hl) [2, 4]: 74.0 kg/hl; % Screenings (2.2 mm) ([3]; sprayed at GS60, 2.2 mm): 4.8%; % Screenings (2.5 mm) ([3]; sprayed at GS60, 2.5 mm): 7.3%; Specific Weight (kg/hl) [3, 4]: 68.3 kg/hl |
| CC(=O)Nc1ccc(O)cc1 [AC, N-(4-hydroxypheyl)acetamide, reference compound] | 102.8 | 98.8 | 25.5 | 24.5 | 98.0 | 103.7 | 29.3 | 31.0 | 98.0 | 99.8 | 53.3 | 54.3 | 101.8 | 101.8 | 33.5 | 33.5 |  |
